Data taken from US9241993B2, “Inhibitors of branched-chain-aminotransferase-1 (BCAT1) for the treatment of brain tumors” (Deutsches Krebsforschungszentrum, priority 2011, dated 2016).

How the values were obtained:
Type in all cases: cell-based, human
U-373MG cells = assay: 1H-NMR spectroscopy of cell extracts, intracellular BCAA levels; conditions: 20 mM gabapentin for 20 hours vs control
Procedure: (§1) (i) Treatment with dimethyl-α-ketoglutarate and Gabapentin 5×10^4 cells/well were seeded in 24-well plates in a total volume of 500 μl cell culture medium. The medium was removed 16 hours after seeding the cells, and replaced with 500 μl medium containing 5 mM or 10 mM dimethyl-α-ketoglutarate (Dimethyl 2-oxoglutarate; Sigma-Aldrich) or 5 mM, 10 mM or 20 mM gabapentin ([…]; Sigma-Aldrich). Corresponding volumes of 200 mM HEPES buffer (pH 7.4) were added to the respective control wells.
(§2) Cells were harvested by trypsinization, washed once with ice-cold PBS, and the cell pellet was frozen at −80° C. Typically 1×10^8 harvested cells were subjected to perchloric acid extraction followed by KOH neutralization according to published protocols^50. Briefly, 2 mL of ice-cold 1 N HClO4 were added to a frozen pellet of harvested cells. The pellet was disrupted using a Teflon pestle and a glass homogeniser. 1 mL of ice-cold water was added to the lysate, vortexed for 90 s and centrifuged at 10000×g for 10 min at 4° C. The pellet was re-extracted and the supernatants were combined. The extract was neutralised with KOH and the pH was adjusted to 6.5-7.0 Precipitated KClO4 was pelleted at 25000×g for 20 min and the supernatant was lyophilised.
(§3) The lyophilised extract residues were dissolved in 0.5 ml of a D2O buffer (99.9% D) containing 30 mM sodium phosphate and 0.1 mM sodium azide (pH 7.02). For quantitative analysis a reference capillary (1.5 mm OD, 0.99 mm ID) was filled with a solution of 11 mM trimethylsilyl-2,2,3,3-tetradeuteropropanoic acid (TSP, sodium salt) in the D2O buffer described above. Subsequently, the capillary was sealed in the flame of a Bunsen burner. A calibration solution was prepared by placing weighed amounts of glucose and citric acid in the D2O buffer to give the calculated concentrations of 10.49 mM glucose and 4.95 […]. ^1H-NMR spectra of the calibration solution+capillary were acquired at 600 MHz (Avance AV-600, Bruker BioSpin GmbH) using a standard 5-mm NMR tube and a triple-resonance inverse probe under the same conditions to be used for the extracts (20° C., presaturation of residual HDO signal, repetition time TR=7 s, 30° flip angle). […] Cell extracts were measured with the calibrated reference capillary inserted (512 transients in 1 hour), and the ^1H-NMR signals for the branched-chain amino acids, various metabolites, and the TSP reference were integrated. The TSP integral was defined as 4.60 mM so that the metabolite signal integrals gave directly the metabolite concentrations in mM (μmol/ml) for the 0.5 ml volumes used.

U-87MG cells = assay: as above; conditions: 20 mM gabapentin for 20 hours vs control
Procedure: as §1, §2, §3

[1] = system: glioblastoma cell lines U87-MG, HS683 and U373-MG; assay: Click-iT EdU cell proliferation assay after gabapentin treatment; conditions: concentration-dependent
Procedure: as §1
To assess the proliferation of glioma cells after treatment with gabapentin or after lentiviral knockdown, the Click-iT® EdU cell proliferation assay (Invitrogen, Karlsruhe, Germany) was used following the manufacturer's instructions. The cells were incubated with 10 μM of the nucleoside analog EdU (5-ethynyl-2′deoxyuridine) for 16 hours. Quantification of cells that incorporated EdU was performed using FACS Canto II (BD Biosciences).
The human glioblastoma cell lines U87-MG (HTB-14), HS683 (HTB-138) and U373-MG (HTB-17; LGC Standards, Teddington TW11 0LY U.K.) were cultured in Dulbecco's Minimal Essential Medium supplemented with 10% fetal calf serum and 1% penicillin/streptomycin-mix. 5×10^4 cells/well were seeded in 24 well plates in a total volume of 500 μl cell culture medium. […]

HS683 = assay: Cell-cycle analysis (propidium iodide, flow cytometry), sub-G1 fraction; conditions: HS683, 20 mM, 20 hours after treatment
Procedure: (§4) Cell-cycle analysis was performed 20 hours after treatment with gabapentin and 6 days after lentiviral transduction. Nicoletti buffer (0.1% sodium citrate, pH7.4, 0.05% Triton X-100, 50 μg propidium iodide) was added to the wells containing both dead and living cells. After 4 hours in the dark at 4° C., DNA content was analysed by flow cytometry using FACS Canto II (BD Biosciences, San Jose, Calif., USA). FACS Diva software was used to quantify the distribution of cells in each cell-cycle phase: sub-G1 (dead cells), G1, S, and G2/M. For investigation of apoptotic activity after lentivira knockdown NCH421k cells were incubated with annexin V-P (Phycoerythrin) and 7-AAD (7-aminoactinomycin D, BD Biosciences) for 15 minutes in the dark, immediately followed by flow cytometry.

U373-MG = assay: as above; conditions: 20 mM, 20 hours after treatment
Procedure: as §4

U87-MG = assay: as above; conditions: 20 mM, 20 hours after treatment
Procedure: as §4

glioma cells = assay: Glutamate quantification in supernatant of gabapentin-treated cells; conditions: 20 mM, 6 and 12 hours after start of treatment
Procedure: as §1
Glutamate concentration in the supernatant of cells treated with gabapentin was determined using the glutamine/glutamate determination Kit (GLN-1; Sigma-Aldrich) according to the manufacturer's instructions. The reaction volumes were scaled down to 100 μl total volume and absorbance was measured in triplicate in a microplate (Corning° 96 Well Clear Flat Bottom UV-Transparent Microplate) using a Tecan Infinite M200 plate reader (Tecan, Austria). Data were normalised to the number of cells per well.

glioma cell lines = assay: Cell-cycle analysis, G1 phase; conditions: gabapentin treatment, 20 hours
Procedure: as §4

BCAT1 expression = assay: BCAT1 RNA and protein expression (qRT-PCR, Western blot) in glioma cell lines; conditions: increasing concentration of dimethyl-alpha-KG in the culture medium (5 mM or 10 mM)
Procedure: Total RNA was extracted using the AllPrep DNA/RNA/Protein Mini Kit (Qiagen) according to the manufacturer's instructions. FirstChoice® Human Brain Reference Total RNA from Ambion served as normal brain RNA pool (n=23 donors). Total RNA (500 ng) was reverse-transcribed using random primers and superscript II (Invitrogen, Karlsruhe, Germany) according to the manufacturer's instructions. Each complimentary DNA sample was analysed in triplicate with the Applied Biosystems Prism 7900HT Fast Real-Time PCR System (Applied Biosystems, Foster City, Calif., USA) using Absolute SYBR Green ROX Mix (ABgene, Epsom, UK). The relative amount of specific mRNA was normalised to ARF, B2M and TBP.
All experiments involving the use of human tissues are carries out in line with the guidelines of the institutional review board of the Medical Faculty at Heinrich Heine University Dusseldorf. Fresh frozen human tumor tissue samples and a non-neoplastic brain tissue sample were lysed in guanidine isothiocyanate solution (4M) using an ULTRA-TURRAX (IKA, Staufen, Germany) and subjected to CsCl-ultracentrifugation. […]
Infection of glioma cells with virus at an M.O.I. of 2 was carried out in the presence of 8 μg/ml of polybrene (Chemicon, Billerica, Mass., USA). […] Quantification of BCAT1 and IDH1 knockdown was assessed by quantitative real-time PCR and Western blot. […]

SMILES: NCC1(CC(=O)O)CCCCC1 [Gabapentin, 1-(aminomethyl) cyclohexaneacetic acid]
- increase of isoleucine (Ile) level, factor (U-373MG cells): 2.32
- increase of leucine (Leu) level, factor (U-373MG cells): 2.18
- increase of valine (Val) level, factor (U-373MG cells): 1.83
- increase of isoleucine (Ile) level, factor (U-87MG cells): 1.19
- increase of leucine (Leu) level, factor (U-87MG cells): 1.38
- increase of valine (Val) level, factor (U-87MG cells): 1.09
- reduction of cell proliferation ([1]; 5, 10 and 20 mM, all cell lines, vs mock treated cells (Example 2)): 20-55%
- reduction of proliferation, estimated based on EdU-incorporation ([1]; 20 hours (Example 9, FIG. 6a)): up to 56%
- Average sub-G1 (HS683): 10.1%
- Average sub-G1 (U373-MG): 2.8%
- Average sub-G1 (U87-MG): 2.4%
- Glutamate release (glioma cells): significantly reduced
- cell cycle effect (fraction of cells in G1-phase) (glioma cell lines): partial G1-arrest

SMILES: COC(=O)CCC(=O)C(=O)OC [dimethyl-alpha-KG, Dimethyl 2-oxoglutarate]
- BCAT1 expression (BCAT1 expression): upregulated
